From patent US7915276B2, “Berberrubine derivatives having antifungal activities” (priority 2006, dated 2011)
≈ marks a conversion by molar mass, not a printed value.

Tests used:
[1] = molecular target: T1, chitin synthase 1 of Candida albicans chs2 Δ chs 3 Δ (Candida albicans, UniProt P23316); assay: In vitro enzyme assay for chitin synthase 1 of Candida albicans (enzyme 1); type: biochemical; conditions: relative to polyoxin D (50% inhibitory activity = value 5)
T1 construct: Crude enzyme was prepared using the Candida albicans chs2 Δ chs 3 Δ mutant; endogenous in cells; host or cells: Candida albicans chs2Δ/chs2Δ chs3Δ/chs3Δ mutant; 130,000 x g membrane pellet
T1 sequence (P23316 whole entry, stated change not applied): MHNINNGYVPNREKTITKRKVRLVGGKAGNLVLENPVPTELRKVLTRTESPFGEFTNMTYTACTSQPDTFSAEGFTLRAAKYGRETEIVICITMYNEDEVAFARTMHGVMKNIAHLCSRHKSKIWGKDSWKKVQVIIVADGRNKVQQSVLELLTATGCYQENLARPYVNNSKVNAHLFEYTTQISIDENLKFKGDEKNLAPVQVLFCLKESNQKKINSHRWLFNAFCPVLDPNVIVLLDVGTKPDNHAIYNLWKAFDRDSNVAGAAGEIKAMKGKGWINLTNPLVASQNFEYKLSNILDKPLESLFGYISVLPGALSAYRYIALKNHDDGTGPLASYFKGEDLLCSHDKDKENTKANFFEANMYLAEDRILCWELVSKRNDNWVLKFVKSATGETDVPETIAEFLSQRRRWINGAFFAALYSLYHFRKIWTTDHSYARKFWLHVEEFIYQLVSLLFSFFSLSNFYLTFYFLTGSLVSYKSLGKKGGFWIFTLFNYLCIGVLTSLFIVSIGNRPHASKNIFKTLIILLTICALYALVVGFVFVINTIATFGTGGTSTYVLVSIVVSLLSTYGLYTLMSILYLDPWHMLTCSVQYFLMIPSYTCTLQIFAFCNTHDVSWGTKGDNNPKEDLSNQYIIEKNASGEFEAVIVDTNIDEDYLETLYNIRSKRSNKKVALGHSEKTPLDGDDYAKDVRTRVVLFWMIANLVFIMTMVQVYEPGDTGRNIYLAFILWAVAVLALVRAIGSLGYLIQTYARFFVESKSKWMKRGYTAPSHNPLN
Description: Crude enzyme was prepared using the Candida albicans chs2 Δ chs 3 Δ mutant (chs2 Δ::hisG/chs2 Δ::hisG chs3 Δ::hisG/chs3 Δ::hisG) strain, which can only produce the chitin synthase 1. The strain was inoculated with the SDA (Sabouraud dextrose agar) culture medium (4% dextrose, 1% peptone, pH 5.6) and cultured at 30° C. for 15-17 hours until the absorbance at 550nm reaches 0.7. The cells were collected and suspended in a 50 mM Tris-HCl (pH 7.5) buffer solution containing 5 mM magnesium acetate. After centrifugation at 8,000×g for 10 minutes, the pellets were suspended in the same Tris-HCl buffer solution. The suspension was divided into aliquots in 50 mL conical test tubes. After adding glass beads, the cells were disrupted by vigorously vortexing with an interval of 30 seconds. The cell residues were removed by centrifuging at 3,000×g for 5 minutes. The supernatant was ultra-centrifuged at 130,000×g for 1 hour. The resultant pellets were collected and suspended in 50 mM Tris-HCl (pH 7.5) containing 33% glycerol, to a final volume of 1.6 mg/g (wet weight) of yeast used. The suspension was divided into aliquots and kept at −70° C. until it is used.
(§1) The inhibitory activities against the chitin synthase 1 of Candida albicans chs2 Δ chs 3 Δ (abbreviated as ‘enzyme 1’) and the chitin synthase 2 of Saccharomyces cerevisiae ECY38-38A(pAS6)(abbreviated as ‘enzyme 2’) was examined for compound Nos. 1 to 70 compound and polyoxin D, a positive control compound.
(§2) The inhibitory activity against the chitin synthase 1 prepared from Candida albicans and the chitin synthase 2 prepared from Saccharomyces cerevisiae were examined as follows. A reaction mixture containing 32 mM Tris-HCl (pH 7.5), 2 mM cobalt acetate, 1.1 mM UDP-[U-^14C]-N-acetyl-d-glucosamine (GlcNAc) (400,000 cpm/μmol), 2 μL of trypsin (0.75 mg/mL), 20 μL of each crude enzyme and 14 μL of each test sample was kept at 30° C. for 15 minutes to activate the enzyme. Then, 2 μL of trypsin inhibitor (1.5 mg/mL) was added and the mixture was kept in an ice bath for 10 minutes to deactivate trypsin. 2 μL of 0.8 M N-acetyl-d-glucosamine was added to a total volume of 50 μL and reaction was performed at 30° C. for 90 minutes. The reaction was stopped using 1 mL of 10% TCA solution and the reaction solution was filtered with a GF/C filter and dried at room temperature. After adding 3 mL of a scintillation cocktail solution, the amount of isotopes was measured using a liquid scintillation counter. Percentage inhibition against each enzyme was calculated by the following Equation 1.
(§3) The control group was not added with a test sample in the reaction mixture and that of the untreated group contained neither the test sample nor the crude enzyme.
(§4) A 50% inhibitory activity of polyoxin D against the enzyme was given the value 5. A compound having the same inhibitory activity as that of polyoxin D at the same concentration was given the value 5. Compounds having the inhibitory activity at 2-fold, 4-fold, 8-fold and 16-fold higher concentrations than that of polyoxin D were given the values of 4, 3, 2 and 1, respectively. On the other hand, compounds having the inhibitory activity at ½, ¼ and ⅛ lower concentrations than that of polyoxin D were given the values of 6, 7 and 8, respectively.

[2] = molecular target: T2, chitin synthase 2 of Saccharomyces cerevisiae ECY38-38A(pAS6) (Saccharomyces cerevisiae, UniProt P14180); assay: In vitro enzyme assay for chitin synthase 2 of Saccharomyces cerevisiae (enzyme 2); type: biochemical; conditions: relative to polyoxin D (50% inhibitory activity = value 5)
T2 construct: made in house; host or cells: Saccharomyces cerevisiae ECY38-38A (chs1-23 chs2::LEU2 cal1/csd2) carrying plasmid pAS6, grown in galactose medium; 130,000 x g membrane pellet
T2 sequence (P14180 whole entry): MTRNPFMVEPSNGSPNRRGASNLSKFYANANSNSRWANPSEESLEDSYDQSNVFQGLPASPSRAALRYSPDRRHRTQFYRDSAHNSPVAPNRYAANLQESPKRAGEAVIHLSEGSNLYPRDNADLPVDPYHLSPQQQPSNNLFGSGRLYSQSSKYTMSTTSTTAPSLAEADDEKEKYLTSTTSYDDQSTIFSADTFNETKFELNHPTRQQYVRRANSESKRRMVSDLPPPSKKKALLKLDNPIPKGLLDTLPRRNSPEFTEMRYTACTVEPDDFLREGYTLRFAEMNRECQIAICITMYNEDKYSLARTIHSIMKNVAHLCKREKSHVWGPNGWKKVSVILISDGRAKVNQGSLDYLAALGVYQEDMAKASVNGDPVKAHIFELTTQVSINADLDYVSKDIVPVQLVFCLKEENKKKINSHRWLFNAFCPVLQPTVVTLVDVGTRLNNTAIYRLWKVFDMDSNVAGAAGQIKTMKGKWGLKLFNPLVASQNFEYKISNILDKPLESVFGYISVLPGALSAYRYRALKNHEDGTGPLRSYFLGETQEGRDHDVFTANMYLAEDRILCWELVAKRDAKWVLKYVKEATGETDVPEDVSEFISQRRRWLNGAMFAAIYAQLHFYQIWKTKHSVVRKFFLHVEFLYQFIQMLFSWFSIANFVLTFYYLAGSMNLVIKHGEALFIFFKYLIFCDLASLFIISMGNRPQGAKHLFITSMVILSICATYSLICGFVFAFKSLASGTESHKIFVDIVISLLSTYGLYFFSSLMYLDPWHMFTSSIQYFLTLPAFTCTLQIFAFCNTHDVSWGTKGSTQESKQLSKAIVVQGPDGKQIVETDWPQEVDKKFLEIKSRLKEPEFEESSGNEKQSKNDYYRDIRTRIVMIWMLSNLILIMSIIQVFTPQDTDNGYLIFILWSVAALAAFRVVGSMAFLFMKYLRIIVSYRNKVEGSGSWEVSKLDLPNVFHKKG
Description: Crude enzyme was prepared using the recombinant Saccharomyces cerevisiae ECY38-38A(pAS6) (MATa chs1-23 chs2::LEU2 cal 1/csd 2 ura 3-52 trp 1-1 leu 2-2 pAS6) strain, which can produce the chitin synthase 2 only. The strain was inoculated with the YPG culture medium (1% yeast extract, 2% peptone, 2% galactose) and cultured at 30° C. overnight. Then, it was inoculated with a fresh YPG culture medium and cultured for 15-17 hours until the Absorbance at 550 nm reaches 1.0. The cells were collected and suspended in 50 mM Tris-HCl (pH 7.5) buffer containing 5 mM magnesium acetate. After centrifugation at 8,000×g for 10 minutes, the pellets were suspended in the same Tris-HCl buffer solution. The suspension was divided into aliquots in 50 mL conical test tubes. After adding the glass beads, the cells were disrupted by vigorously vortexing with an interval of 30 seconds. The cell residues were removed by centrifuging at 3,000×g for 5 minutes. The supernatant was ultra-centrifuged at 130,000×g for 1 hour. The resultant pellets were collected and suspended in 50 mM Tris-HCl (pH 7.5) containing 33% glycerol, to a final volume of 1.6 mg/g (wet weight) of yeast used. The suspension was divided into aliquots and kept at −70° C. until it is used.
as §1, §2, §3, §4

[3] = tested on: Mucor ramosissimus ATCC 90286; assay: In vitro antifungal activity (MIC), NCCLS method; type: cell-based; conditions: 48 hours
Excerpt: (§5) Candida albicans ATCC 10231, Candida lusitaniae ATCC 42720, Candida krusei ATCC 6258, Candida tropicalis ATCC 13803, Candida glabrata ATCC 48435, Candida parapsilosis ATCC 34136, Cryptococcus neoformans ATCC 36556, Aspergillus fumigatus ATCC 16424, Aspergillus flavus ATCC 64025, Aspergillus terreus ATCC 46941 and Mucor ramosissimus ATCC 90286 strains for the MIC (minimum inhibitory concentration) measurement were obtained from ATCC (American Type Culture Collection) in the U.S. The Candida albicans A207(clinical isolate) strain was used by isolating it from the patients.
(§6) The determination of MIC was performed according to the NCCLS (National Committee for Clinical Laboratory Standard) method. Each test sample solution was diluted two-fold and inoculated with a fungal suspension to reach a final inoculum size of 5×10^2 to 2.5×10^3 cell/mL. The Cryptococcus neoformans strain was cultured in the RPMI 1640 medium for 72 hours. Other strains were cultured for 48 hours.

[4] = tested on: Candida parapsilosis ATCC 34136; assay: In vitro antifungal activity (MIC), NCCLS method; type: cell-based; conditions: Candida parapsilosis ATCC 34136; 48 hours
Excerpt: as §5, §6

[5] = tested on: Candida glabrata ATCC 48435; assay: In vitro antifungal activity (MIC), NCCLS method; type: cell-based; conditions: Candida glabrata ATCC 48435; 48 hours
Excerpt: as §5, §6

[6] = tested on: Aspergillus flavus ATCC 64025; assay: In vitro antifungal activity (MIC), NCCLS method; type: cell-based; conditions: 48 hours
Excerpt: as §5, §6

[7] = tested on: Candida tropicalis ATCC 13803; assay: In vitro antifungal activity (MIC), NCCLS method; type: cell-based; conditions: 48 hours
Excerpt: as §5, §6

[8] = tested on: Aspergillus terreus ATCC 46941; assay: In vitro antifungal activity (MIC), NCCLS method; type: cell-based; conditions: 48 hours
Excerpt: as §5, §6

[9] = tested on: Aspergillus fumigatus ATCC 16424; assay: In vitro antifungal activity (MIC), NCCLS method; type: cell-based; conditions: 48 hours
Excerpt: as §5, §6

Candida krusei ATCC 6258 = assay: In vitro antifungal activity (MIC), NCCLS method; type: cell-based; conditions: 48 hours
Excerpt: as §5, §6

[10] = tested on: Cryptococcus neoformans ATCC 36556; assay: In vitro antifungal activity (MIC), NCCLS method; type: cell-based; conditions: RPMI 1640 medium, 72 hours
Excerpt: as §5, §6

[11] = tested on: Candida lusitaniae ATCC 42720; assay: In vitro antifungal activity (MIC), NCCLS method; type: cell-based; conditions: 48 hours
Excerpt: as §5, §6

[12] = tested on: Candida albicans ATCC 10231; assay: In vitro antifungal activity (MIC), NCCLS method; type: cell-based; conditions: 48 hours
Excerpt: as §5, §6

[13] = tested on: Candida albicans A207 (clinical isolate); assay: In vitro antifungal activity (MIC), NCCLS method; type: cell-based; conditions: 48 hours
Excerpt: as §5, §6

Compound | Relative activity Enzyme 1 [1] | Relative activity Enzyme 2 [2] | MIC (minimum inhibitory concentration) [3] | MIC (minimum inhibitory concentration) [4] | MIC (minimum inhibitory concentration) [5] | MIC (minimum inhibitory concentration) [6] | MIC (minimum inhibitory concentration) [7] | MIC (minimum inhibitory concentration) [8] | MIC (minimum inhibitory concentration) [9] | MIC (minimum inhibitory concentration) (Candida krusei ATCC 6258) | MIC (minimum inhibitory concentration) [10] | MIC (minimum inhibitory concentration) [11] | MIC (minimum inhibitory concentration) [12] | MIC (minimum inhibitory concentration) [13]
13-(4-Isopropylbenzyl)-9-O-(3-hydroxypropyl)berberrubine chloride [Compound No. 53] | 4 (Compounds having the inhibitory activity at 2-fold, 4-fold, 8-fold and 16-fold higher concentrations than that of polyoxin D were given the values of 4, 3, 2 and 1, respectively) | 6 (compounds having the inhibitory activity at ½, ¼ and ⅛ lower concentrations than that of polyoxin D were given the values of 6, 7 and 8, respectively) | 4 µg/mL | 2 µg/mL | 2 µg/mL | 8 µg/mL | 0.5 µg/mL | 8 µg/mL | 2 µg/mL | 1 µg/mL | 1 µg/mL | 2 µg/mL | 0.5 µg/mL | 0.5 µg/mL
COc1ccc2c(Cc3cc(F)c(F)c(F)c3)c3[n+](cc2c1OCc1ccc(C(C)(C)C)cc1)CCc1cc2c(cc1-3)OCO2.[Cl-] [Compound No. 61, 13-(3,4,5-Trifluorobenzyl)-9-O-(4-tert-butylbenzyl)berberrubine chloride] | 2 (Compounds having the inhibitory activity at 2-fold, 4-fold, 8-fold and 16-fold higher concentrations than that of polyoxin D were given the values of 4, 3, 2 and 1, respectively) | 4 (Compounds having the inhibitory activity at 2-fold, 4-fold, 8-fold and 16-fold higher concentrations than that of polyoxin D were given the values of 4, 3, 2 and 1, respectively) | – | – | – | – | – | – | – | – | – | – | – | –
COc1cc(Cc2c3[n+](cc4c(OCc5ccc(C(C)(C)C)cc5)c(OC)ccc24)CCc2cc4c(cc2-3)OCO4)cc(OC)c1OC.[Cl-] [Compound No. 64, 13-(3,4,5-Trimethoxybenzyl)-9-O-(4-tert-butylbenzyl)berberrubine chloride] | 2 (Compounds having the inhibitory activity at 2-fold, 4-fold, 8-fold and 16-fold higher concentrations than that of polyoxin D were given the values of 4, 3, 2 and 1, respectively) | 4 (Compounds having the inhibitory activity at 2-fold, 4-fold, 8-fold and 16-fold higher concentrations than that of polyoxin D were given the values of 4, 3, 2 and 1, respectively) | – | – | – | – | – | – | – | – | – | – | – | –
COc1ccc2c(Cc3ccc(OC(F)(F)F)cc3)c3[n+](cc2c1OCc1ccc(C(C)(C)C)cc1)CCc1cc2c(cc1-3)OCO2.[Cl-] [Compound No. 67, 13-(4-Trifluoromethoxybenzyl)-9-O-(4-tert-butylbenzyl)berberrubine chloride] | 2 (Compounds having the inhibitory activity at 2-fold, 4-fold, 8-fold and 16-fold higher concentrations than that of polyoxin D were given the values of 4, 3, 2 and 1, respectively) | 5 (A compound having the same inhibitory activity as that of polyoxin D at the same concentration was given the value 5) | – | – | – | – | – | – | – | – | – | – | – | –
COc1ccc2c(Cc3ccc(C(F)(F)F)cc3)c3[n+](cc2c1OCc1ccc(C(C)(C)C)cc1)CCc1cc2c(cc1-3)OCO2.[Cl-] [Compound No. 70, 13-(4-Trifluoromethylbenzyl)-9-O-(4-tert-butylbenzyl)berberrubine chloride] | 2 (Compounds having the inhibitory activity at 2-fold, 4-fold, 8-fold and 16-fold higher concentrations than that of polyoxin D were given the values of 4, 3, 2 and 1, respectively) | 5 (A compound having the same inhibitory activity as that of polyoxin D at the same concentration was given the value 5) | – | – | – | – | – | – | – | – | – | – | – | –
C[C@@H]1[C@H](O)[C@@H](C)/C=C/C=C/C=C/C=C/C=C/C=C/C=C/[C@H](O[C@@H]2O[C@H](C)[C@@H](O)[C@H](N)[C@@H]2O)C[C@@H]2O[C@](O)(C[C@@H](O)C[C@@H](O)[C@H](O)CC[C@@H](O)C[C@@H](O)CC(=O)O[C@H]1C)C[C@H](O)[C@H]2C(=O)O [amphotericin B, reference compound] | – | – | 0.5 µg/mL (≈ 0.541 µM) | 0.5 µg/mL (≈ 0.541 µM) | 1 µg/mL (≈ 1.08 µM) | 4 µg/mL (≈ 4.33 µM) | 0.5 µg/mL (≈ 0.541 µM) | 16 µg/mL (≈ 17.3 µM) | 1 µg/mL (≈ 1.08 µM) | 0.5 µg/mL (≈ 0.541 µM) | 0.125 µg/mL (≈ 0.135 µM) | 1 µg/mL (≈ 1.08 µM) | 0.5 µg/mL (≈ 0.541 µM) | 0.5 µg/mL (≈ 0.541 µM)
